From patent US20070110714A1 (priority 2003, published 2007)

Experiments:
[1] = system: pseudo type VSV-E1E2; type: cell-based
[2] = system: Monocyte-derived DCs from healthy donors (N-DC); assay: MICA/B expression in stimulated DC by flow cytometry (N-DC); type: cell-based, human; settings: N-DC stimulated 24 hours with cytokine at day 6
[3] = system: Monocyte-derived DCs from HCV-infected patients (HCV-DC); assay: MICA/B expression in stimulated DC by flow cytometry (HCV-DC); type: cell-based, human; settings: HCV-DC stimulated 24 hours with cytokine at day 6
[4] = system: VSV? G-G; type: cell-based
[5] = system: HCV; type: cell-based
[6] = system: pseudo type VSV-E1E2; type: cell-based; remark: listed apart in the source
[7] = system: MDC; type: cell-based, human
[8] = system: NK cells; assay: NK cell activation by co-culture with stimulated N-DC (K562 cytolytic assay, intracellular IFN? expression); type: cell-based, human
Description: (§1) NK cells were isolated from PBM of a healthy donor, and labeled with a concentrated antibody cocktail for NK cell, then, labeled with magnetic colloid (StemCell Technologies (Vancouver, BC, Canada)). 90% or more of the cells were CD56+CD3-lymphocytes. The concentrated NK cells were cultured with RPMI 1640 medium supplemented with 10% FCS and 10 U/mL penicillin/streptomycin, in a 24-well culture dish (5.0×10^5/well). DCs from a healthy individual (N-DC) or a HCV-infected individual (HCV-DC) were stimulated with IFNa (1000 U/mL) or IL-15 (50 ng/mL) for 24 hours, added to a well at a concentration of 1.0×10^5/mL, and co-cultured together with NK cells for 24 hours.
(§2) The cytolysis assay was carried out as described below. Target cells (K562) labeled with ^51Cr were incubated for 4 hours at various effecter/target ratios, in NK/DC co-culturing (with or without trans well system) or NK cell single culturing. After incubation, the supernatant was recovered, and ? counting was conducted. Maximum release or natural release was defined as counting from a sample incubated with 5% Triton-X or a sample incubated with only the medium, respectively. The cytolysis activity was calculated according to the following formula: Lysis %=(experimental value of release−natural release)×100/(maximum release−natural release)
(§3) Intracellular IFN? expression of an NK cell was assayed as described below. NK cells cultured for 24 hours together with DC as described above were incubated together with 10 ng/ml PMA and 1 μmol/L ionomycin (Sigma Aldrich). Next, after incubation at 37° C. for 4 hours in the presence of 1 μl/mL GolgiPlug (registered trademark)(BD-Phanmngen), NK cells were stained at 4° C. for 30 minutes with a PE-labeled CD56 monoclonal antibody. The cells were treated with Cytofix/Cytoperm (registered trademark) buffering solution (BD-Pharmingen) at room temperature for 15 minutes, then, stained with a FITC-labeled-anti-IFN? monoclonal antibody (mouse IgG1). The stained cells were analyzed by flow cytometry. […]

[9] = system: NK cells; assay: NK cell activation by co-culture with stimulated HCV-DC; type: cell-based, human; settings: NK cells co-cultured with cytokine-stimulated HCV-DC
Description: as §1
as §2, with “Maximum release or natural release was defined as counting from a sample incubated with 5% Triton-X or a sample incubated with only the medium, respectively.” left out
Intracellular IFN? expression of an NK cell was assayed as described below. […] The stained cells were analyzed by flow cytometry. […]

[10] = system: NK cells; assay: NK cells cultured with IL-15 alone (K562 cytolytic activity and IFN? production); type: cell-based, human; settings: newly isolated NK cells cultured 24 hours with 50 ng/mL IL-15, no DC
Description: as §2, §3

[11] = system: N-DC; assay: Cytokine production of stimulated N-DC, ELISA of culture supernatant; type: cell-based, human; settings: N-DC cultured 24 hours with 50 ng/ml IL-15
Description: (§4) N-DC and HCV-DC were stimulated with IFNa (1000 U/mL) for 24 hours(n=5 for each group). IL-15, IL-12p70, TNFa and IL-1β in each culture supernatant were measured by solid phase sandwich ELISA using a couple of specific monoclonal antibodies and a recombinant cytokine standard substance (IFNa/β, IL-12p70, TNFa and IL-1β, Endogen, Wobum, Mass.; IL-15, BD-Pharmingen). The limit thresholds of detection of these ELISA systems are as described below: IL-15, 3.7 pg/mL; IFNa/β, 17.5 pg/mL; IL-12p70, TNFa and IL-1β, 8.8 pg/mL.
(§5) N-DC and HCV-DC were cultured for 24 hours together with 50 ng/ml IL-15 in the presence or absence of an anti-IFNa/βR neutralization antibody (30 μg/mL)(n=5 for each group). IFNa and IFNβ in each culture supernatant were measured by ELISA.

[12] = system: HCV-DC; assay: Cytokine production of stimulated HCV-DC, ELISA of culture supernatant; type: cell-based, human; settings: HCV-DC cultured 24 hours with 50 ng/ml IL-15
Description: as §4, §5

[13] = NK cells co-cultured 24 hours with cytokine-stimulated N-DC

| Molecule | MICA/B expression [2] | MICA/B expression [3] | percentage of VSV-E1E2-containing GFP+ cells [1] | sensitivity against VSV? G-G (percentage of GFP+ cells) [4] | other results |
| --- | --- | --- | --- | --- | --- |
| GM-CSF: recombinant human GM-CSF (PeproTech) |  |  |  |  | proportion of GFP+ cells (median) [1]: 1.5% |
| TNFa | did not induce MICA/B expression | did not induce MICA/B expression | decreased | decreased |  |
| O=C[C@H](O)[C@@H](O)[C@@H](O)[C@H](O)CO [galactose] |  |  |  |  | percentage of GFP+ cell having VSV-E1E2 [1]: did not exert an influence |
| polyI:C |  |  | decreased | decreased |  |
| IL-12: cytokine (R&D Systems) | did not induce MICA/B expression | did not induce MICA/B expression |  |  |  |
| IL-18: cytokine (R&D Systems) | did not induce MICA/B expression | did not induce MICA/B expression |  |  |  |
| mannan |  |  |  |  | percentage of GFP+ cell having VSV-E1E2 [1]: decreased in dose-dependent manner; disturbing effect on infection of MDC with true HCV [5]: confirmed; infection of VSV-E1E2 in HepG2 cells [6]: did not inhibit |
| O=C(O)CN(CCN(CC(=O)O)CC(=O)O)CC(=O)O [EDTA] |  |  |  |  | percentage of GFP+ cell having VSV-E1E2 [1]: did not decrease |
| CpG ODN 2006 |  |  | decreases significantly | not influenced | expression of CD83 and CD86 [7]: up-regulated |
| IL-15: cytokine (R&D Systems); claimed active ingredient, T cell growth factor stimulating dendritic cells | could apparently induce MICA/B | could apparently induce MICA/B |  |  | IFN? production of NK cells [8, 13]: increase; cytolytic activity for K562 cells [8, 13]: increase; K562 cytolytic activity ([8]; trans well: NK cells and IL-15 (50 ng/mL)-stimulated N-DC separated by 0.4 μm membrane, 24 hours): did not show increase in cylolytic ability; activation of NK cells [9]: activated NK cells; activation of NK cells (K562 cytolytic activity and IFN? production) [10]: could not activate NK cells; production of IFNa and IFNβ [11]: produced; production of IFNa and IFNβ [12]: produced |
| IL-4: recombinant human IL-4 (PeproTech) (protein, UniProt P05112 25-153, looked up) Interleukin-4: HKCDITLQEIIKTLNSLTEQKTLCTELTVTDIFAASKNTTEKETFCRAATVLRQFYSHHEKDTRCLGATAQQFHRHKQLIRFLKRLDRNLWGLAGLNSCPVKEANQSTLENFLERLKTIMREKYSKCSS |  |  | decreases significantly | not influenced |  |
